Test results: paper PMC3827683 (Journal of the American Chemical Society, 2013)

How the values were obtained:
Assay in all cases: direct UV assay of deamination
Format in all cases: biochemical
Conditions in all cases: 20 mM HEPES pH 7.5, 30 °C
Avi5431 [1] = target: T1, Avi5431 (Gillisella ampelina, UniProt B9K107)
T1 sequence (B9K107 1-466): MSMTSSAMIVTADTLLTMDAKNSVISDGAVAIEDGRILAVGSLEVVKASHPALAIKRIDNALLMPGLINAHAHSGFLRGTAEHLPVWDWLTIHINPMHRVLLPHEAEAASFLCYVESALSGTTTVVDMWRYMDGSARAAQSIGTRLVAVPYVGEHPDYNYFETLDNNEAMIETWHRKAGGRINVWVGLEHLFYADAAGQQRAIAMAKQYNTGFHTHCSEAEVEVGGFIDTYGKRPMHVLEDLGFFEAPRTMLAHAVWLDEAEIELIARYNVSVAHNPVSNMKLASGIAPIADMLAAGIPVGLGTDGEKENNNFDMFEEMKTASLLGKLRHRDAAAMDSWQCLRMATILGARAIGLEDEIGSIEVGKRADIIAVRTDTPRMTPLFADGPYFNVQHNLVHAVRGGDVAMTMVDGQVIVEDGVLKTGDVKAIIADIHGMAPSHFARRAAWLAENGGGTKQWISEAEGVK

Tvn0515 = target: T2, Tvn0515 (Thermoplasma volcanium, UniProt Q97BE1)
T2 sequence (Q97BE1 1-418): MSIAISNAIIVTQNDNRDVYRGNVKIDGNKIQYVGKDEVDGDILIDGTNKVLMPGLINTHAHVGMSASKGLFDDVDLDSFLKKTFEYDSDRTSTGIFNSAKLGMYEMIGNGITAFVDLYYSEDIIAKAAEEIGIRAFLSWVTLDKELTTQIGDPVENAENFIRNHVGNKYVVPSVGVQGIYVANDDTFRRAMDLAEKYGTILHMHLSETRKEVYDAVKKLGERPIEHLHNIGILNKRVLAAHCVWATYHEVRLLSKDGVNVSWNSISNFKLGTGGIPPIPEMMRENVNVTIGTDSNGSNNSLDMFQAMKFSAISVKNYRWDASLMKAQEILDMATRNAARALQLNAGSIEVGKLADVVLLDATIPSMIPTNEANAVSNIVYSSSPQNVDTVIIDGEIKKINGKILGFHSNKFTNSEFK

Avi5431 [2] = target: T1, Avi5431; remark: listed apart in the source

## Nc1ncnc2[nH]c(=O)[nH]c12 [8-oxoadenine]
Avi5431 [1]
  direct UV assay of deamination (272 nm): Avi5431 deaminated two adenine related compounds, 8-oxoadenine and 2-oxoadenine

## Nc1ncnc2c1ncn2[C@@H]1O[C@H](CSCC[C@H](N)C(=O)O)[C@@H](O)[C@H]1O [SAH]
Tvn0515
  Km: Tvn0515 (sg-11) deaminates only SAH

## Nc1nc(O)nc2[nH]cnc12 [2-oxoadenine]
Avi5431 [2]
  direct UV assay of deamination (294 nm): Avi5431 deaminated two adenine related compounds, 8-oxoadenine and 2-oxoadenine
